From patent publication US4528293A, “Heteroaromatic derivatives of iminomethyl piperidines and use to inhibit gastric acid secretion” (McNeilab, Inc., priority 1983, dated 1985)

tested on: gastric acid secretion; assay: Acute gastric fistula rat test: inhibition of gastric acid secretion (Total Acid Output); assay type: in vivo, Female Sprague-Dawley rats; details: ip, compound administered intraperitoneally (footnote *), read-out: ED50 Acute Gastric Fistula (dose required to produce an average of 50% inhibition in Total Acid Output versus controls)
Experimental: The compounds of the invention of formula (I) are useful for the inhibition of gastric acid secretion as measured by the following test. Female Sprague-Dawley rats are fasted twenty-four hours before testing and are given water ad libidum while being kept in individual cages. On the day of testing, the rats are weighed within a range of ±20 grams.
Surgery is carried out under light ether anesthesia. As soon as the rat is anesthetized its teeth are removed and a mid-line incision is made on the abdomen about 11/2 inches in length and the stomach and duodenum are exposed. If at this point the stomach is filled with food or fecal material, the rat is discarded. If the condition of the stomach is acceptable, a purse string stitch is placed on the fundic portion of the stomach with a suture, taking care not to pierce any blood vessels in the area. A small nick is then made into the stomach in the center of the purse string, and a cannula, consisting of a small vinyl tube with a flange on one end, is put into the stomach, and the purse string stitch is closed tightly around the flange. The test compound is administered either intraduodonally (i.d.) immediately after surgery or orally (p.o.) one hour prior to surgery at doses generally ranging from about 0.25 to about 160 mg/kg in a volume of 0.5 ml/100 grams rat. Control rats receive the test vehicle, 0.5% aqueous hydroxypropyl methyl cellulose.
After surgery and, in the case of i.d. administration, after administration of the test compound, the abdominal wall and skin are closed simultaneously with three or four 18 mm wound clips and a collecting tube is placed on the cannula. Each rat is then placed in a box in which a longitudinal slit has been made to allow the cannula to hang freely and to allow the rat to move about unencumbered. After the rat has been allowed to stabilize for thirty minutes, the collection tube on the cannula is discarded and replaced with a clean tube to receive the gastric juice. Collections are made one hour after stabilization.
The sample of gastric contents collected is drained into a centrifuge tube and centrifuged to pack down the sediment. The volume is read and a 1 ml aliquot of the supernatant is put into a beaker containing 20 ml of distilled water and is titrated to pH 7 using 0.01N sodium hydroxide. Results are determined for Volume, Titratable Acid and Total Acid Output, where Volume equals total ml of gastric juice minus sediment; Titratable Acid (meq/1) equals amount of 0.01N sodium hydroxide needed to titrate the acid to pH 7; and Total Acid Output equals Titratable Acid times Volume. Results are reported as the ED50 dose (mg/kg required to produce an average of 50% inhibition in Total Acid Output versus controls in the animals tested for a particular compound) and as percent inhibition.

Structure (SMILES) | ED50
C(=NCCc1c[nH]c2ccccc12)N1CCC(C(c2ccccc2)c2ccccc2)CC1 [Example 2, N-(4-Diphenylmethyl-1-piperidinyl)-methylene-3-1H-indoleethaneamine monohydroiodide] | 4.34 mg/kg

same assay, conditions: po, one hour prior to surgery, 1 h collection after 30 min stabilization, read-out: ED50 Acute Gastric Fistula (dose required to produce an average of 50% inhibition in Total Acid Output versus controls)

Structure (SMILES) | ED50
C(=NCc1ccco1)N1CCC(C(c2ccccc2)c2ccccc2)CC1 [Example 1, 4-(Diphenylmethyl)-1-[(2-furanylmethyl)iminomethyl]piperidine (E)-2-butenedioate (1:1) hydrate (5:2)] | 6.91 mg/kg
Cn1cccc1CCN=CN1CCC(C(c2ccccc2)c2ccccc2)CC1.O=C(O)/C=C/C(=O)O [Example 3, 4-Diphenylmethyl-1-[N-[(1-methyl-1H-pyrrol-2-yl)ethyl]-iminomethyl]piperidine (E)-2-butenedioate] | 3.61 mg/kg
C(=NCc1cccs1)N1CCC(C(c2ccccc2)c2ccccc2)CC1 [Example 4, 4-(Diphenylmethyl)-1-[(2-thiophenemethyl)imino]methylpiperidine (E)-2-butenedioate (1:1) hydrate (2:1)] | 6.59 mg/kg
C(=NCCc1ccccn1)N1CCC(C(c2ccccc2)c2ccccc2)CC1 [Example 5, 4-(Diphenylmethyl-1[[2-(2-pyridinyl)ethyl]iminomethyl]piperidine (E)-2-butenedioate (1:1)] | 3.47 mg/kg
C(=NCCc1ccncc1)N1CCC(C(c2ccccc2)c2ccccc2)CC1 [Example 6, 4-Diphenylmethyl-1-[[2-(4-pyridinyl)ethyl]iminomethyl]piperidine 2-naphthalenesulfonate hydrate (4:4:3)] | 18.8 mg/kg
